This assay concerns glia. As to the kind of experiment: dual labeling of cortical slices with mag-Indo-1AM and sulforhodamine (neurons vs glia). The conditions noted are these: 145/2555; n=4 slices; neocortical slices. The format is cell-based, mice. On the procedure:
FIGS. 9(a)-9(d) are exemplary images mag-Indo-1-AM loads mostly neurons in which slices are simultaneously loaded with mag-Indo1-AM and Sulforhodamine 101 (e.g., SR101, 20 μM) and imaged at their respective exemplary wavelengths;
(See A. Nimmerjahn, F. Kirchhoff, J. N. Kerr et al., Nat Methods 1 (1), 31 (2004)). For example, 5.7±1.56% (145/2555; n=4 slices) of mag-Indo-1AM loaded cells can also be loaded with sulforhodamine, and only 8.1 t 2.59% (145/1786, n=4 slices) of sulforhodamine-loaded cells can also be loaded with mag-Indo-1AM.
Coronal neocortical slices can be prepared from, e.g., P12-15 C57/BL6 mice or somatostatin-GFP mice (see A. A. Oliva, Jr., M. Jiang, T. Lam et al., J Neurosci 20 (9), 3354 (2000)) (e.g., Jackson Laboratory, Bar Harbor, Me.) with a vibratome (e.g., VT1000S; Leica, Nussloch, Germany). 300 μm thick slices can be cut in ice-cold oxygenated modified ACSF that can include 1 mM CaCl2 and 3 mM MgSO4, in which NaCl can be replaced by an equimolar concentration of sucrose (in mM): 27 NaHCO3, 1.5 NaH2PO4, 222 Sucrose, 2.6 KCl. Slices can then be placed in oxygenated standard ACSF at 37° C. for 30 min. For AM-loading, slices can be deposited onto the bottom of a small Petri dish (35×10 mm) filled with 2 ml of ACSF, ventilated with 95% O2/5% CO2 and placed in a slide warmer at 37° C. (Fisher Scientific, Waltham Mass.). […]

As to mag-Indo-1AM, the “mag-Indo-1AM loaded cells also loaded with sulforhodamine” value stood at 5.7±1.56%.
